# Experimental data as given in patent US20220125093A1, “NUTRITIONAL SUPPLEMENTS INCLUDING MEAL REPLACEMENTS AND RELATED METHODS” (Ohio State Innovation Foundation, priority 2012, published 2022).
# Assays:
# [1] = single dose of zinc, healthy young adult women, blood at 0, 1, 2, 3 and 4 hours
# Text: Zinc glycinate has not been studied at all in people who have had bariatric surgery. Furthermore, in published studies on any types of people, zinc glycinate has not been compared much to other forms of zinc. Thus, an unpublished comparative study was done in healthy young adult women that compared zinc glycinate to two other forms of zinc. The study utilized an indirect approach of absorption. In this approach, a single dose of zinc was given to young adult women; blood was taken at 0, 1, 2, 3, and 4 hours. Both plasma and red blood cells (erythrocytes) were analyzed for zinc and for each, an area under the curve graph was calculated for zinc content versus time.
# [2] = Iron status as ferritin/CRP ratio after bariatric surgery; assay type: in vivo, human; conditions: added to meal replacement product, same amount of iron for each group
# Text: Design. Young adult females who were about to have bariatric surgery were recruited. Blood and urine samples were taken before surgery and 6 weeks later. People were divided into two groups. One group drank 2 servings per day of the new product related to this patent (N=12) for 6 weeks. The other group drank 2 servings of a current meal replacement product and also took other supplements including sublingual vitamin B12. The new product had the B12 put right in the meal replacement product. The vitamin is put in the product at a daily dose that is very high relative to normal recommendations, and high relative to what was used for injections or sublingual administration. Also, a coenzyme form of the vitamin was used in the meal replacement product.
# Iron status was measured as ferritin/CRP ratios (ferritin reflects iron status but can also be influenced by inflammation; CRP only reflects inflammation).
Compound,erythrocyte (red blood cell) zinc area under the curve [1],plasma zinc area under the curve [1],iron status (ferritin/CRP ratios) [2]
"NCC(=O)[O-].NCC(=O)[O-].[Zn+2] [Zinc glycinate, zinc glycinate]",outperformed zinc oxide and gluconate,outperformed zinc oxide and gluconate,–
Iron Glycinate Chelate,–,–,improved iron status to about the same degree as a conventional bariatric meal replacement product+iron lozenges
